In one assay the target is T1, gastrin receptor (Cavia porcellus, UniProt H0VZC5).
T1 construct: Strips of muscle (approximately 2.5 cm by 1 cm) are removed from the proximal area of the stomach; from tissue; host or cells: guinea-pig proximal stomach (fundus) muscle strips
T1 sequence (H0VZC5 1-426): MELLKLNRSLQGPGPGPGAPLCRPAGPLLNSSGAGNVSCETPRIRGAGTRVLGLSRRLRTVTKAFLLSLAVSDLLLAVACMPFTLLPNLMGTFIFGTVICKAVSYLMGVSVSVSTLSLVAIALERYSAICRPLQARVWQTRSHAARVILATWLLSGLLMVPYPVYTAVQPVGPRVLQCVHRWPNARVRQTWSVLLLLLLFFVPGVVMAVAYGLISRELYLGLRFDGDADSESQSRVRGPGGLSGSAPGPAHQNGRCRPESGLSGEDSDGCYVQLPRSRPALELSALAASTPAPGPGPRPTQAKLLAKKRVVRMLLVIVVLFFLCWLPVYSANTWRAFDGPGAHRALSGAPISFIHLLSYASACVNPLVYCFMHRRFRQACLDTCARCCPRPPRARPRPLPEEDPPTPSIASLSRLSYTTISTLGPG
The experiment in a line: guinea-pig fundus assay for gastrin activity (stomach muscle strips). As to conditions: 10^-8 M devazepide present, 60 minute equilibration, agonist e.g. pentagastrin, standard errors less than 5%. The class given is cell-based. The method, then:
The compounds were assayed for gastrin activity using the mouse stomach assay as described by Black, J. W. and Shankley, N. P., Br. J. Pharmacol., 86, 571-579, (1985), and also in the guinea-pig fundus assay, as follows:
The stomach is removed from a male Dunkin-Hartley guinea-pig (250-500 g), and Krebs solution is injected through a hypodermic needle under the top stomach muscle layer. The composition (mM) of the Krebs solution is as follows: Na^+ 143, K^+ 5.9, Ca^2+ 2.5, Mg^2+ 1.2, Cl^- 128, H2 PO4^- 2.2, HCO3^- 24.9, SO4^2- 1.2, dextrose 10. Strips of muscle (approximately 2.5 cm by 1 cm) are removed from the proximal area of the stomach (one from each side) and tied with cotton thread to isotonic transducers under an initial loading tension of 0.35 g.
The preparation is immersed in 20 mls of Krebs solution containing 10^-8 M devazepide (25 μl 2×10^-3 M devazepide/100% DMF solution in 5 dm^3 Krebs) and gassed with 95% O2 /5% CO2. The function of the devazepide is to block possible effects at CCK receptors present in the tissue.
The preparation is washed twice over a 60 minute period then 10 mM KCl is added. At 90 minutes, test compounds (ie. potential antagonists) are added and a further 60 minute equilibration period allowed. After this time, cumulative agonist (e.g. pentagastrin) dose-response curves are constructed.

Assay [1] has as its target T2, cholecystokinin receptors (Cavia porcellus, UniProt Q63931).
T2 construct: Isolated, strip preparations were prepared from gall-bladders removed from male Dunkin-Hartley guinea-pigs; from tissue; host or cells: guinea-pig gall-bladder strips
T2 sequence (Q63931 1-430): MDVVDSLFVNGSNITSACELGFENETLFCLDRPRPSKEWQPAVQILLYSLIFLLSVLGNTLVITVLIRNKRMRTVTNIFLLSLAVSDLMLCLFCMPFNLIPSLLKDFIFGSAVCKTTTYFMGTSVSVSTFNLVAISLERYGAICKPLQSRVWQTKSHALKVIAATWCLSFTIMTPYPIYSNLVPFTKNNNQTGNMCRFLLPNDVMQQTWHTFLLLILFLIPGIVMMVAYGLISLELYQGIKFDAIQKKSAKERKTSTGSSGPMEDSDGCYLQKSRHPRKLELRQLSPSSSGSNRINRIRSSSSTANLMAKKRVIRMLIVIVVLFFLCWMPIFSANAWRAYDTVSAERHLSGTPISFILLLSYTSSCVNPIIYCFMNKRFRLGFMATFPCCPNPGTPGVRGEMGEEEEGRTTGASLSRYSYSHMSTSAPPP
The experiment in a line: CCK-antagonist activity in isolated guinea-pig gall-bladder strip preparations. Type of assay: cell-based. As to conditions: guinea-pig gall-bladder strips; CCK-8 as agonist; test compound incubated for 60 minutes; standard errors less than 5%. The method, then: The compounds of the invention were also assayed for CCK-antagonist activity as follows:
Isolated, strip preparations were prepared from gall-bladders removed from male Dunkin-Hartley guinea-pigs (250-500 g body weight) according to the method of La Morte, W. W., et al., J.P.E.T., 217, (3), 638-644 (1981).
The complete gall-bladder is removed and opened along the longitudinal axis. Strips measuring 3 mm in the longitudinal axis and 1 mm in the transverse axis are cut and then tied with cotton to stainless steel wires. The preparation is connected to a GRASS FTO3 isometric transducer under an initial loading tension of 1 g and is immersed in 20 mls of Krebs solution maintained at 37° C. and gassed with 95% O2 /5% CO2. The Krebs solution is as detailed above in connection with the fundus assay, except that the Ca^2+ concentration is decreased to 0.5 mM. After 30 mins the preparation is washed. Drug addition begins after an initial 90 min stabilisation period. Responses are measured as changes in tension from that immediately prior to any drug addition. Single cumulative agonist concentration-effect curves, using CCK-8 as agonist, are obtained on each preparation in the absence and presence of test compound which has been incubated for 60 minutes. The antagonist activity of the test compound is estimated and expressed as the negative logarithm (base 10) of the equilibrium dissociation constants (pK8) using the modifications of standard competitive analysis described by Black et al., Br. J. Pharmacol.,86,571-579, (1985) and Shankley et al., Br. J. Pharmacol.,94,264-274 (1988).

In general, pKB refers to −log10 of the KB, conventionally taken in molar units. Lower therefore signals a large KB. Regarding `CC(C)(C)OC(=O)N[C@@H](Cc1c[nH]c2ccccc12)C(=O)N[C@@H](Cc1ccc2ccccc2c1)C(=O)N[C@@H](CC(=O)O)C(=O)NCCc1ccc([N+](=O)[O-])cc1` [Example 30, N-t-Butyloxycarbonyl-L-tryptophyl-L-3-(2-naphthyl)alanyl-L-aspartyl-4-nitrophenethylamide], the pKB was determined as 5.7 on gastrin receptor and 6.6 in assay [1].

Take `Cc1cccc(CCNC(=O)[C@H](CC(=O)O)NC(=O)[C@H](Cc2ccc3ccccc3c2)NC(=O)[C@H](Cc2c[nH]c3ccccc23)NC(=O)OC(C)(C)C)c1` [Example 39, N-t-Butyloxycarbonyl-L-tryptophyl-L-3-(2-naphthyl)alanyl-L-aspartyl-3-methylphenethylamide]: the pKB at gastrin receptor was 5.4; in assay [1], 6.7.

Take `CC(C)(C)OC(=O)N[C@@H](Cc1c[nH]c2ccccc12)C(=O)N[C@@H](Cc1ccc2ccccc2c1)C(=O)N[C@@H](CC(=O)O)C(=O)NCCc1ccncc1` [Example 44, N-t-Butyloxycarbonyl-L-tryptophyl-L-3-(2-naphthyl)alanyl-L-aspartyl-2-(4-pyridyl)ethylamide]: the results for the pKB (on gastrin receptor; in assay [1]) were 6.0 and 6.2, respectively.

As to `COc1cc2c(cc1OC)CN(C(=O)C(CC(=O)O)NC(=O)C(Cc1ccc3ccccc3c1)NC(=O)C(Cc1c[nH]c3ccccc13)NC(=O)OC(C)(C)C)CC2` [Example 48, N-t-Butyloxycarbonyl-L-tryptophyl-L-3-(2-naphthyl)alanyl-L-aspartyl-2-N-(6,7-dimethoxy-1,2,3,4-tetrahydro)isoquinolinamide], the pKB is given as 5.7 at gastrin receptor and 6.6 in assay [1].

Regarding `CC(C)(C)OC(=O)N[C@@H](Cc1c[nH]c2ccccc12)C(=O)N[C@@H](Cc1ccc2ccccc2c1)C(=O)N[C@@H](CC(=O)O)C(=O)NCCc1ccc(S(N)(=O)=O)cc1` [Example 49, N-t-Butyloxycarbonyl-L-tryptophyl-L-3-(2-naphthyl)alanyl-L-aspartyl-4-sulphonamidophenethylamide], the figures for the negative-log KB (pKB) (at gastrin receptor; in assay [1]) were 6.2 and 6.8, respectively.

With `COc1ccc(CNC(=O)[C@H](CC(=O)O)NC(=O)[C@H](Cc2ccc3ccccc3c2)NC(=O)[C@H](Cc2c[nH]c3ccccc23)NC(=O)OC(C)(C)C)cc1` [Example 51], the pKB on gastrin receptor is listed as 5.7; in assay [1] it was 7.0.

With `CC(C)(C)OC(=O)N[C@@H](Cc1c[nH]c2ccccc12)C(=O)N[C@@](C)(Cc1ccc2ccccc2c1)C(=O)N[C@@H](CC(=O)O)C(=O)N[C@@H](Cc1ccccc1)C(N)=O` [Example 57, N-t-Butyloxycarbonyl-L-tryptophyl-L-2-methyl-3-(2-naphthyl)alanyl-L-aspartyl-L-phenylalaninamide], the values for the pKB (on gastrin receptor; in assay [1]) were 5.6 and 6.0, respectively.

On to `COc1ccc(CCNC(=O)[C@H](CCC(=O)O)NC(=O)[C@H](Cc2ccc3ccccc3c2)NC(=O)[C@H](Cc2c[nH]c3ccccc23)NC(=O)OC(C)(C)C)cc1` [Example 61, N-t-Butyloxycarbonyl-L-tryptophyl-L-3-(2-naphthyl)alanyl-L-glutamyl-4-methoxyphenethylamide], for which the pKB at gastrin receptor is 5.7; in assay [1], 6.5.

Consider `CC(C)(C)CCNC(=O)[C@H](CC(=O)O)NC(=O)[C@H](Cc1ccc2ccccc2c1)NC(=O)[C@H](Cc1c[nH]c2ccccc12)NC(=O)OC(C)(C)C` [Example 64, N-t-Butyloxycarbonyl-L-tryptophyl-L-3-(2-naphthyl)alanyl-L-aspartyl-3,3-dimethylbutylamide], for which the figures for the pKB (on gastrin receptor; in assay [1]) were 5.9 and 7.0, respectively.

Take “N-t-Butyloxycarbonyl-L-tryptophyl-L-3-(2-naphthyl)alanyl-L-aspartyl-1-indanylamide [Example 25]”: the pKB at gastrin receptor is listed as 5.7; in assay [1] it was 6.3.

“N-t-Butyloxycarbonyl-L-tryptophyl-L-3-(2-naphthyl)alanyl-L-aspartyl-3,4-dimethoxyphenethylamide [Example 41]”: the negative logarithm of the KB (pKB) on gastrin receptor was 6.0; in assay [1] it was 6.5.
